Among the data in patent US20260193271A1, “PAN-KRAS INHIBITOR COMPOUND” (ADLAI NORTYE BIOPHARMA CO., LTD., priority 2022, published 2026) are IC50 values, retold here.

Each structure is given as a SMILES string.

One assay concerns AsPC-1 (G12D). The assay can be described thus: In vitro cell proliferation inhibition test (CellTiter-Glo), AsPC-1. Conditions: Homo sapiens, ASPC1, AsPC-1 pancreas cell line, KRAS (p.G12D), 72 h co-incubation. In kind it is cell-based. Put shortly: (§1)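 Cells were seeded at 1000-5000/well by doubling time and cultured overnight at 37 °C, 5% CO2. They were then exposed for 72 h to 10-point, 3-fold compound dilutions (final top 10 μM), and viability was read by CellTiter-Glo luminescence. IC50 came from normalized signals fitted by four-parameter regression.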
Background: In ATP-based viability assays light output follows the ATP content of the culture.

The test system of the next assay is SW480 (G12V). Description: In vitro cell proliferation inhibition test (CellTiter-Glo), SW480. The following applies: Homo sapiens, SW480 colon cell line, KRAS (p.G12V), 72 h co-incubation. In kind it is cell-based. Summed up: as §1

Usually IC50 stands for the concentration that inhibits the measured activity by half. `CCn1c(-c2cc(-c3cc(CN4CCOCC4)on3)cnc2[C@H](C)OC)c2c3cc(ccc31)-c1csc(n1)C[C@H](NC(=O)[C@H]1C[C@@H]1C)C(=O)N1CCC[C@H](N1)C(=O)OCC(C)(C)C2` (atropisomer, axis not shown) [Compound 22, (1S,2S)-N-((6^3S,4S,Z)-1^1-ethyl-1^2-(2-((S)-1-methoxyethyl)-5-(5-(morpholinomethyl)isoxazol-3-yl)pyridin-3-yl)-10,10-dimethyl-5,7-dioxo-6^1,6^2,6^3,6^4,6^5,6^6-hexahydro-1^1H-8-oxa-2(4,2)-thiazola-1(5,3)-indola-6(1,3)-pyridazinacycloundecaphane-4-yl)-2-methylcyclopropane-1-carboxamide]: the IC50 in the assay with AsPC-1 (G12D) worked out at 11 nM; with SW480 (G12V), 10 nM.
Taken in the same sequence, the figures for `CCn1c(-c2cc(-c3cc(CNC)on3)cnc2[C@H](C)OC)c2c3cc(ccc31)-c1csc(n1)C[C@H](NC(=O)[C@H]1C[C@@H]1C)C(=O)N1CCC[C@H](N1)C(=O)OCC(C)(C)C2` (atropisomer, axis not shown) [Compound 23, (1S,2S)-N-((6^3S,4S,Z)-1^1-ethyl-1^2-(2-((S)-1-methoxyethyl)-5-(5-((methylamino)methyl)isoxazol-3-yl)pyridin-3-yl)-10,10-dimethyl-5,7-dioxo-6^1,6^2,6^3,6^4,6^5,6^6-hexahydro-1^1H-8-oxa-2(4,2)-thiazola-1(5,3)-indola-6(1,3)-pyridazinacycloundecaphane-4-yl)-2-methylcyclopropane-1-carboxamide] were 42 nM and 117 nM.
Taken in the same sequence, the figures for `CCn1c(-c2cc(-c3cc([C@H]4CCCN4C)on3)cnc2[C@H](C)OC)c2c3cc(ccc31)-c1csc(n1)C[C@H](NC(=O)[C@H]1C[C@@H]1C)C(=O)N1CCC[C@H](N1)C(=O)OCC(C)(C)C2` (atropisomer, axis not shown) [Compound 24, (1S,2S)-N-((6^3S,4S,Z)-1^1-ethyl-1^2-(2-((S)-1-methoxyethyl)-5-(5-((R)-1-methylpyrrolidin-2-yl)isoxazol-3-yl)pyridin-3-yl)-10,10-dimethyl-5,7-dioxo-6^1,6^2,6^3,6^4,6^5,6^6-hexahydro-1^1H-8-oxa-2(4,2)-thiazola-1(5,3)-indola-6(1,3)-pyridazinacycloundecaphane-4-yl)-2-methylcyclopropane-1-carboxamide] were 26 nM and 19 nM.
On the same counts, the results for `CCn1c(-c2cc(-c3cc([C@@H]4CCCN4C)on3)cnc2[C@H](C)OC)c2c3cc(ccc31)-c1csc(n1)C[C@H](NC(=O)[C@H]1C[C@@H]1C)C(=O)N1CCC[C@H](N1)C(=O)OCC(C)(C)C2` (atropisomer, axis not shown) [Compound 25, (1S,2S)-N-((6^3S,4S,Z)-1^1-ethyl-1^2-(2-((S)-1-methoxyethyl)-5-(5-((S)-1-methylpyrrolidin-2-yl)isoxazol-3-yl)pyridin-3-yl)-10,10-dimethyl-5,7-dioxo-6^1,6^2,6^3,6^4,6^5,6^6-hexahydro-1^1H-8-oxa-2(4,2)-thiazola-1(5,3)-indola-6(1,3)-pyridazinacycloundecaphane-4-yl)-2-methylcyclopropane-1-carboxamide] are 20 nM and 22 nM.
With `CCn1c(-c2cc(-c3cc([C@H]4CN(C)CCO4)on3)cnc2[C@H](C)OC)c2c3cc(ccc31)-c1csc(n1)C[C@H](NC(=O)[C@H]1[C@H](C)[C@@H]1C)C(=O)N1CCC[C@H](N1)C(=O)OCC(C)(C)C2` (atropisomer, axis not shown) [Compound 26, (1r,2R,3S)-N-((6^3S,4S,Z)-1^1-ethyl-1^2-(2-((S)-1-methoxyethyl)-5-(5-((R)-4-methylmorpholin-2-yl)isoxazol-3-yl)pyridin-3-yl)-10,10-dimethyl-5,7-dioxo-6^1,6^2,6^3,6^4,6^5,6^6-hexahydro-1^1H-8-oxa-2(4,2)-thiazola-1(5,3)-indola-6(1,3)-pyridazinacycloundecaphane-4-yl)-2,3-dimethylcyclopropane-1-carboxamide], the half-maximal inhibitory concentration (IC50) is 10 nM in the assay on AsPC-1 (G12D) and 2.5 nM in the assay with SW480 (G12V).
